Results reported in ChEMBL document CHEMBL1143950, “Antifungal and cytotoxic activities of some N-substituted aniline derivatives bearing a hetaryl fragment” (Bioorg Med Chem, 2008).
Converted amounts (≈) assume the structure as drawn.

Columns and labels:
Cryptococcus neoformans [1] = test: Antifungal activity against Cryptococcus neoformans IM 983040 by micro-broth dilution method; format: functional
Cryptococcus neoformans [2] = test: Antifungal activity against Cryptococcus neoformans IM 972724 by micro-broth dilution method; format: functional
Cryptococcus neoformans [3] = test: Antifungal activity against Cryptococcus neoformans IM 042074 by micro-broth dilution method; format: functional
Cryptococcus neoformans [4] = test: Antifungal activity against Cryptococcus neoformans IM 983036 by micro-broth dilution method; format: functional
Cryptococcus neoformans [5] = test: Antifungal activity against Cryptococcus neoformans IM 00319 by microbroth dilution method; format: functional
Cryptococcus neoformans [6] = test: Antifungal activity against Cryptococcus neoformans IM 972751 by microbroth dilution method; format: functional
Cryptococcus neoformans [7] = test: Antifungal activity against Cryptococcus neoformans IM 031631 by micro-broth dilution method; format: functional
Cryptococcus neoformans [8] = test: Antifungal activity against Cryptococcus neoformans IM 031706 by micro-broth dilution method; format: functional
Cryptococcus neoformans [9] = test: Antifungal activity against Cryptococcus neoformans IM 961951 by micro-broth dilution method; format: functional
Candida albicans = test: Antifungal activity against Candida albicans ATCC 10231 by micro-broth dilution method; format: functional
Candida tropicalis = test: Antifungal activity against Candida tropicalis C131 by micro-broth dilution method; format: functional
Saccharomyces cerevisiae = test: Antifungal activity against Saccharomyces cerevisiae ATCC 9763 by microbroth dilution method; format: functional
Cryptococcus neoformans [10] = test: Antifungal activity against Cryptococcus neoformans ATCC 32264 by microbroth dilution method; format: functional
Aspergillus fumigatus = test: Antifungal activity against Aspergillus fumigatus ATCC 26934 by micro-broth dilution method; format: functional
Aspergillus flavus = test: Antifungal activity against Aspergillus flavus ATCC 9170 by micro-broth dilution method; format: functional
Trichophyton rubrum = test: Antifungal activity against Trichophyton rubrum C113 by microbroth dilution method; format: functional
Aspergillus niger = test: Antifungal activity against Aspergillus niger ATCC 9029 by micro-broth dilution method; format: functional
Nannizzia gypsea = test: Antifungal activity against Microsporum gypseum C115 by microbroth dilution method; format: functional
[11] = tested on: Trichophyton mentagrophytes; test: Antifungal activity against Trichophyton mentagrophytes ATCC 9972 by micro-broth dilution method; format: functional
MCF7 = test: Cytotoxicity against human MCF7 cells by SRB assay; format: functional, cell-based
NCI-H460 = test: Cytotoxicity against human H460 cells by SRB assay; format: functional, cell-based
SF-268 = test: Cytotoxicity against human SF268 cells by SRB assay; format: functional, cell-based

Structure (SMILES)	MIC (Cryptococcus neoformans [1]) [µg/mL]	MIC (Cryptococcus neoformans [2]) [µg/mL]	MIC (Cryptococcus neoformans [3]) [µg/mL]	MIC (Cryptococcus neoformans [4]) [µg/mL]	MIC (Cryptococcus neoformans [5]) [µg/mL]	MIC (Cryptococcus neoformans [6]) [µg/mL]	MIC (Cryptococcus neoformans [7]) [µg/mL]	MIC (Cryptococcus neoformans [8]) [µg/mL]	MIC (Cryptococcus neoformans [9]) [µg/mL]	MIC (Candida albicans) [µg/mL]	MIC (Candida tropicalis) [µg/mL]	MIC (Saccharomyces cerevisiae) [µg/mL]	MIC (Cryptococcus neoformans [10]) [µg/mL]	MIC (Aspergillus fumigatus) [µg/mL]	MIC (Aspergillus flavus) [µg/mL]	MIC (Trichophyton rubrum) [µg/mL]	MIC (Aspergillus niger) [µg/mL]	MIC (Nannizzia gypsea) [µg/mL]	MIC [11] [µg/mL]	IC50 (MCF7) [µg/mL]	also measured
CCC(C)n1ncn(-c2ccc(N3CCN(c4ccc(OCC5COC(Cn6cncn6)(c6ccc(Cl)cc6Cl)O5)cc4)CC3)cc2)c1=O (centres undefined) [ITRACONAZOLE]	< 0.015	0.25 (≈ 0.354 µM)	< 0.015	< 0.015	< 0.015	0.25 (≈ 0.354 µM)	0.5 (≈ 0.709 µM)	< 0.015	< 0.015												
O=[N+]([O-])c1cccc(NCc2ccncc2)c1										100 (≈ 436 µM)	100 (≈ 436 µM)	50 (≈ 218 µM)	50 (≈ 218 µM)	100 (≈ 436 µM)	200 (≈ 872 µM)	6.25 (≈ 27.3 µM)	100 (≈ 436 µM)	12.5 (≈ 54.5 µM)	12.5 (≈ 54.5 µM)	> 10	IC50 (NCI-H460): > 10 µg/mL; IC50 (SF-268): < 10 µg/mL
C=CCC(Nc1ccc(Br)cc1)c1ccncc1 (centres undefined)										> 250	> 250	> 250	> 250	> 250	> 250	16 (≈ 52.8 µM)	> 250	16 (≈ 52.8 µM)	31.2 (≈ 103 µM)		
Clc1ccc(NCc2ccco2)cc1Cl	100 (≈ 413 µM)	25 (≈ 103 µM)	25 (≈ 103 µM)	25 (≈ 103 µM)	100 (≈ 413 µM)	100 (≈ 413 µM)	100 (≈ 413 µM)	100 (≈ 413 µM)	100 (≈ 413 µM)	62.5 (≈ 258 µM)	62.5 (≈ 258 µM)	50 (≈ 207 µM)	25 (≈ 103 µM)	50 (≈ 207 µM)	50 (≈ 207 µM)	3.12 (≈ 12.9 µM)	62.5 (≈ 258 µM)	6.25 (≈ 25.8 µM)	12.5 (≈ 51.6 µM)	8 (≈ 33 µM)	IC50 (NCI-H460): 8.7 µg/mL (≈ 35.9 µM); IC50 (SF-268): 8.2 µg/mL (≈ 33.9 µM)
C=CCC(Nc1ccc(OC)cc1)c1ccncc1 (centres undefined)										> 250	> 250	> 250	> 250	> 250	> 250	125 (≈ 491 µM)	> 250	62.5 (≈ 246 µM)	125 (≈ 491 µM)		
